# B1: Fab fragment of the DN30 anti-Met antibody: Fab fragment obtained through DN30 papain digestion and affinity purification; induces MET down-regulation (antibody)
# heavy: QVQLQQPGTELVKPGASVKLSCKASGYTFTSYWIHWVKQRPGQGLEWIGEINPSSGRTNYNEKFKNKVTVTVDKSSTTAYMQLSNLTSEDSAVYYCASRGYWGQGTTLTVSSAKTTAPSVYPLAPVCGNTTGSSVTLGCLVKGYFPEPVTLTWNSGSLSSGVHTFPAVLQSDLYTLSSSVTVTSSTWPSQSITCNVAHPASSTKVDKKIEPRGPTIKPCPPCKCPAPNLLGGPSVFIFPPKIKDVLMISLSPIVTCVVVDVSEDDPDVQISWFVNNVEVHTAQTQTHREDYNSTLRVVSALPIQHQDWMSGKEFKCKVNNKDLPAPIERTISKPKGSVRAPQVYVLPPPEEEMTKKQVTLTCMVTDFMPEDIYVEWTNNGKTELNYKNTEPVLDSDGSYFMYSKLRVEKKNWVERNSYSCSVVHEGLHNHHTTKSFSRTPGK
# light: DIVLTQSPASLAVSLGQRATISCKASQSVDYDGGSYMSWFQQRPGQPPKLLISAASNLESGIPARFSGSGSGTDFTLNIHPVEEEDVATYYCQQSYEDPLTFGAGTKLELKRADAAPTVSIFPPSSEQLTSGGASVVCFLNNFYPKDINVKWKIDGSERQNGVLNSWTDQDSKDSTYSMSSTLTLTKDEYERHNSYTCEATHKTSTSPIVKSFNRNEC
# Experiments:
# ATM kinase = biological target: T1, ATM kinase (Homo sapiens, UniProt Q13315); test: ATM kinase inhibition in irradiated cells, western blot time course; format: cell-based; details: MDA-MB-435S or MDA-MB-231, 10 μM, time course after irradiation
# T1 construct: endogenous in cells; host or cells: MDA-MB-435S, MDA-MB-231 (ATCC)
# T1 sequence (Q13315 whole entry): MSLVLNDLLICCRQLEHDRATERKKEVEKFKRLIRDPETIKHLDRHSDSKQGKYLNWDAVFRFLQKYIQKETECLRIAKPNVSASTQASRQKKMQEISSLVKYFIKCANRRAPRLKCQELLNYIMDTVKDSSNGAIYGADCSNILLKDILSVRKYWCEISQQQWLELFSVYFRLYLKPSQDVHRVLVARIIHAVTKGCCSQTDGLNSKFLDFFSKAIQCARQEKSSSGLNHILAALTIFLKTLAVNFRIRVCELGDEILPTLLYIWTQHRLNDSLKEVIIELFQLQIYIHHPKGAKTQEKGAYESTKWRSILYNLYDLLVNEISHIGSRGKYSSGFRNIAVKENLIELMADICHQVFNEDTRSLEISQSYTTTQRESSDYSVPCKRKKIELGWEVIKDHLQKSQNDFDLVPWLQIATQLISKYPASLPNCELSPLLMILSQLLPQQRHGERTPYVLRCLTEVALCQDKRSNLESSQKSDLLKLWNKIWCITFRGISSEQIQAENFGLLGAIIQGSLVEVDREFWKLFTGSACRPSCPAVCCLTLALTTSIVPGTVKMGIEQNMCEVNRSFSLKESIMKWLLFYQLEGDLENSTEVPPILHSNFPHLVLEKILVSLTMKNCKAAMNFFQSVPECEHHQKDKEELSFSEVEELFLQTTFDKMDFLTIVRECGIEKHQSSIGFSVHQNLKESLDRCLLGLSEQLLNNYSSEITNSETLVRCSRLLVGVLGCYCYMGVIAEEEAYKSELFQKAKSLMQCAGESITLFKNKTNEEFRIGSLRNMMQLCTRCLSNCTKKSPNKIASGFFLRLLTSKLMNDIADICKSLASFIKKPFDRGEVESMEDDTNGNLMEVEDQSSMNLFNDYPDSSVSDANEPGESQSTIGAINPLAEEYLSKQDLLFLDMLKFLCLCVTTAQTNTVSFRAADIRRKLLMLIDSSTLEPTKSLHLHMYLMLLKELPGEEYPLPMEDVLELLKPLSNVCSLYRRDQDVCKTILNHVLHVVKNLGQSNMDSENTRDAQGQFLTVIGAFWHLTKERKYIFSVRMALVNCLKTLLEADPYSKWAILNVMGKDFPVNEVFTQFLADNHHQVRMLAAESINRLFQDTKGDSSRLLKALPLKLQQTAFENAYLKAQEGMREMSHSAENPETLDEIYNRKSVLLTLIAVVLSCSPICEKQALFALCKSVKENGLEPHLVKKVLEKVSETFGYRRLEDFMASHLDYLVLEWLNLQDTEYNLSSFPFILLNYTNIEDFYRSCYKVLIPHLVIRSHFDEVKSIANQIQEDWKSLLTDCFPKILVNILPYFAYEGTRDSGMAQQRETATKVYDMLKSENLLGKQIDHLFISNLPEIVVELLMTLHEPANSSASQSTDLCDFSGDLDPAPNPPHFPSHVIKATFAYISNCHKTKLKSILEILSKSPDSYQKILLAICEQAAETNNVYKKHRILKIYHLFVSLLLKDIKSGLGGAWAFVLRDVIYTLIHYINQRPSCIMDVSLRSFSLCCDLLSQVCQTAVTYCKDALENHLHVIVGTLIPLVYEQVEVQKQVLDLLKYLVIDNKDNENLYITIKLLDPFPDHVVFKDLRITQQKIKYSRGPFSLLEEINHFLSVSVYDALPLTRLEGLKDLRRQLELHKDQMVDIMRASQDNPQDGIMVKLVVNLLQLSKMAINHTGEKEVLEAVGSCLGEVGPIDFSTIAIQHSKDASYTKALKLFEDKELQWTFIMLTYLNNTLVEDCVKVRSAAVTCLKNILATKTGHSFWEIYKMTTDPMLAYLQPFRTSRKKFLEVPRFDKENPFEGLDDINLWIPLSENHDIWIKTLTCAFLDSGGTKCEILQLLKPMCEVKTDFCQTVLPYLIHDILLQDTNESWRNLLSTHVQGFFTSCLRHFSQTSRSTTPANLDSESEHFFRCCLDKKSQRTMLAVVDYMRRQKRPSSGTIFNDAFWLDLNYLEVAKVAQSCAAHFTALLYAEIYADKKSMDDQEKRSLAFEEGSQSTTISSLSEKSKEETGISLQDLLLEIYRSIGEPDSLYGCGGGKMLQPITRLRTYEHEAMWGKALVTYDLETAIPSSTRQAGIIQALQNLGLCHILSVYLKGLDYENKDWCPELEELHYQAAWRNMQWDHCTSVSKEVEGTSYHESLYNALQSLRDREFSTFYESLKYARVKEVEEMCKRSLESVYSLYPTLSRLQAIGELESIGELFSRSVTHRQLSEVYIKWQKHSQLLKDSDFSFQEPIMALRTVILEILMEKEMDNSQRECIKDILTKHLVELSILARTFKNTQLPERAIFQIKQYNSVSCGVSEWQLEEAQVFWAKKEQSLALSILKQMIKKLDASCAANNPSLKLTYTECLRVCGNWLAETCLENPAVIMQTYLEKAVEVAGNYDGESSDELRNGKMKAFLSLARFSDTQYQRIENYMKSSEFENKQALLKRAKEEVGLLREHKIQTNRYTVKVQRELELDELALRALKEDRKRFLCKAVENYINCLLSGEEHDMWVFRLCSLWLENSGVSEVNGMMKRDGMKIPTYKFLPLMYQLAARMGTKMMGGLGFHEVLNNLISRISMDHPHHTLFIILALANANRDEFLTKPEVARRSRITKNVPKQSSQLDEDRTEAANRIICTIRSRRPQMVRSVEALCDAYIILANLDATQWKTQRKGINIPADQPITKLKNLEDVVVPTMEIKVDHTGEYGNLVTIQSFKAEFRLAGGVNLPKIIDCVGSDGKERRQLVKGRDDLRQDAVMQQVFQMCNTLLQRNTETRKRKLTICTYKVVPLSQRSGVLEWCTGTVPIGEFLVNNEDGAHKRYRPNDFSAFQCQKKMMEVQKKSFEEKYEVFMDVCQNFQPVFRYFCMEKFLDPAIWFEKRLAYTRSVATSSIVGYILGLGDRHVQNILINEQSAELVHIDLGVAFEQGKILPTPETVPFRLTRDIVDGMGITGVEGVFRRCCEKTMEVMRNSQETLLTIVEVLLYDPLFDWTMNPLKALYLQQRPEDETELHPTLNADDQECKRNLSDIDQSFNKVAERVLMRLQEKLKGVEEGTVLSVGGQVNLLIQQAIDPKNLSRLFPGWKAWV
# Protocol: Met protein expression, Chk2 phosphorylation (p-Chk2) and p65/RelA nuclear translocation in MDA-MB-435S treated with the ATM kinase inhibitor CGK733, and extracted at the indicated time-points after irradiation. ctrl, non-irradiated cells at time zero.
# Cell lines (A549, MDA-MB-231, LoVo, MDAMB-4355, U-87MG, U-251, PC3, SF295, DLD1, SK-N-SH) were from ATCC. For ATM kinase inhibition, cells were pre-treated for 4 h before irradiation and then kept in the presence of CGK733 (10 μM in DMSO). siRNAs targeting RELA (ON-TARGET plus SMART pool L-003533-00 Human RELA, NM 021975, Dharmacon, 100 nM), or control siRNAs (ON-TARGET plus SMART pool, siCONTROL Non Targeting siRNA, Dharmacon) were transiently transfected.
# Protein expression was investigated in irradiated confluent, serum-starved cells. For fractionation in cytoplasmic and nuclear portions, cells were washed and incubated on ice for 10 min in “buffer A” (10 mM HEPES pH 7.9, 10 mM KCl, 0.1 mM EDTA, 0.5% NP-40, 1 mM dithiothreitol, 1 mM phenylmethylsulfonyl fluoride and a cocktail of protease inhibitors). Supernatants, containing the cytoplasmic extracts, were separated by centrifugation. Pellets were resuspended in “buffer B” (20 mM HEPES pH 7.9, 400 mM KCl, 1 mM EDTA, 1 mM dithiothreitol, 10% glycerol, 1 mM phenylmethylsulfonyl fluoride and a cocktail of protease inhibitors) and incubated at 4° C. for 1 h with vigorous mixing. The resulting nuclear lysates were clarified by high-speed centrifugation. Equal amount of proteins were resolved by SDS-PAGE and analysed by western blot with the following primary antibodies: mouse anti-human Met (DL21 disclosed in Prat et al., Int. J. Cancer 49, 323-328 (1991)), mouse anti-p65/RelA and mouse anti-HIF-1α (BD Biosciences), rabbit anti-phospho-Ser276 and rabbit anticaspase-3 (Cell Signaling), rabbit anti-phospho-Chk2 (T68, R&D Systems). Goat anti-actin (C-11; Santa Cruz Biotechnology) and mouse anti-lamin B (Calbiochem) were used for control of equal cytoplasmic or nuclear protein loading, respectively. […] Densitometric analysis was performed with Quantity One 1-D (Bio-Rad Laboratories). […]
# Met = biological target: T2, Met (Homo sapiens, UniProt P08581); test: Met phosphorylation (immunoprecipitation, anti-phospho-Tyr western blot) in MDA-MB-231; format: cell-based; details: MDA-MB-231, HGF 50 ng/ml (non-saturating)
# T2 construct: Met phosphorylation in MDA-MB-231 treated with HGF (50 nM) and/or IR (10 Gy); endogenous in cells; host or cells: MDA-MB-231 (ATCC)
# T2 sequence (P08581 25-1390): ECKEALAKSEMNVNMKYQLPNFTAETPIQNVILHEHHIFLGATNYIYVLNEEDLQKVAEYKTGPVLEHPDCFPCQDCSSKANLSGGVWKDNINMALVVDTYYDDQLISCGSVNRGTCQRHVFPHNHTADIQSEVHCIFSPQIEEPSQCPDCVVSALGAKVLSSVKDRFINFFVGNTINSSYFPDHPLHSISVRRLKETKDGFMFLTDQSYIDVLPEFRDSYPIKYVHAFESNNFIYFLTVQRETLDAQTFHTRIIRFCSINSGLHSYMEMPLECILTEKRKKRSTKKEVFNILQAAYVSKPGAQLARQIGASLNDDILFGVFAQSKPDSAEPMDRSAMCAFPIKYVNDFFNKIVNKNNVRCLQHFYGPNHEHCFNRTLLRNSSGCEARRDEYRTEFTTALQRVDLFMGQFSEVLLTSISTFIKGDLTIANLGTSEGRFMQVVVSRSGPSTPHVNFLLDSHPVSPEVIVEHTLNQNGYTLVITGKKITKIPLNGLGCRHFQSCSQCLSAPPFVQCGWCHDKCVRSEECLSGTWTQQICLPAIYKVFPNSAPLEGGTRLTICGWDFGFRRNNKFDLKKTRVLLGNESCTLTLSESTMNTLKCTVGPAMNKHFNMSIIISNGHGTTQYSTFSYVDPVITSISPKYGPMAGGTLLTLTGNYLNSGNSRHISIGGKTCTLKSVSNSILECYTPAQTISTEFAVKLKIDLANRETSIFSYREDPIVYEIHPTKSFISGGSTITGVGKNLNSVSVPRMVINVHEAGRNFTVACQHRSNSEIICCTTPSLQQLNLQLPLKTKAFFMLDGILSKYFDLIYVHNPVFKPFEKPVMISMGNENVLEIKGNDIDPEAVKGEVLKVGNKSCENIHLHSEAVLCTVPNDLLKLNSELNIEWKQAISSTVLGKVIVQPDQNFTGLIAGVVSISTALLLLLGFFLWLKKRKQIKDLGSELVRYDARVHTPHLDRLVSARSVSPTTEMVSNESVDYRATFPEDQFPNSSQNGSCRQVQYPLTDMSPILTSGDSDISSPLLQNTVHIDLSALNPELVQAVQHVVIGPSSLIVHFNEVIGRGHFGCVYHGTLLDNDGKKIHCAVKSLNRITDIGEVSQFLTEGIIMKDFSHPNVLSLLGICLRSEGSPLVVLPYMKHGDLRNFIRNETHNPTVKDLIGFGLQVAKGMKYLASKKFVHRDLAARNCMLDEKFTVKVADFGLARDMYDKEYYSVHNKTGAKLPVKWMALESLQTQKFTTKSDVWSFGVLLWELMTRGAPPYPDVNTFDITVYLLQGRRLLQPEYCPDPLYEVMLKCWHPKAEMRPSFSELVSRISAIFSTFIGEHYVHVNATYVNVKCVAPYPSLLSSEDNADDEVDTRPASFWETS
# MDA-MB-4355 spheroids = test: Branching morphogenesis assay; format: cell-based, human; details: HGF 5 nM alone (suboptimal concentration), non-irradiated MDA-MB-4355
# Protocol: a, Basement membrane invasion by irradiated MDA-MB-231 or U-251 (10 Gy; ctrl, control). Micrographs of transwell filters (10×). b, Aberrant Met-induced branching morphogenesis in irradiated MDA-MB-4355 (10 Gy; ctrl, control), cultured with or without (−) the indicated HGF concentrations. Scale bar: 100 μm.
# MDA-MB-4355 spheroids were preformed by single-cell resuspension in 240 mg/ml methylcellulose (Sigma) and culture in nonadherent 96-well plates (Greiner) for 24 h. Spheroids were transferred into a matrix containing 1.3 mg/ml type I collagen from rat tail (BD Biosciences), 10% FBS, and 240 mg/ml methylcellulose. After 24 h, cells were irradiated and/or cultured in the presence of HGF for 7 days. HGF was obtained as a baculovirus recombinant protein in SF9 cells. The conditioned medium from uninfected cells was used as negative control. Images are representative of results obtained in three independent experiments.
# U-251 = test: Cell viability assay with DN30 Fab, with irradiation (10 Gy); format: cell-based, human
# Protocol: Viability of U-251 irradiated with 10 Gy and/or cultured in the presence of the Fab fragment of the DN30 anti-Met antibody, for 48 h (vehicle: non-irradiated cells). Columns: mean of triplicate analyses of three independent experiments±s.e.m. […] Columns: percentage of cells generating clones (mean of triplicate analyses of two independent experiments±s.e.m., * p<0.05, n=6, paired t-test).
# 10^3 cells were seeded in 96-well plates and grown for 24 h. Culture medium was replaced with medium containing 1% FBS and DN30 Fab (28 μg/ml) or the vehicle alone (PBS). After 24 h, cells were irradiated (10 Gy). Cell viability was assessed as above.
molecule,measurement,setting,value
O=C(NC(NC(=S)Nc1ccc(F)c([N+](=O)[O-])c1)C(Cl)(Cl)Cl)C(c1ccccc1)c1ccccc1 (stereo not shown) [CGK733],IR-induced Met protein overexpression,ATM kinase,prevented
same,IR-induced p65/RelA nuclear translocation,ATM kinase,prevented
same,IR-induced phosphorylation of the specific ATM substrate Chk2,ATM kinase,prevented
"HGF: Hepatocyte Growth Factor, Met ligand, obtained as a baculovirus recombinant protein in SF9 cells",time to peak of Met phosphorylation,Met,30 min
same,induction of branching morphogenesis,MDA-MB-4355 spheroids,incapable of inducing branching morphogenesis
B1,Viability of U-251 (combination vs single treatments),"U-251; U-251 irradiated with 10 Gy and cultured with DN30 Fab for 48 h, p<0.05, n=9",viability significantly reduced with respect to either Fab-DN30 or 10 Gy alone
same,cell viability decrease,"U-251; irradiated cells kept in the presence of DN30 Fab (28 μg/ml), 10 Gy",up to 75%

# From patent US20120237524A1, “MET INHIBITORS FOR ENHANCING RADIOTHERAPY EFFICACY” (priority 2011, published 2012)
